From patent US10105357B2, “Indication of antibiotic drugs for preparation of cancer inhibition pharmaceutical composition” (LAUNX BIOMEDICAL CO., LTD., priority 2014, dated 2018)
Like-named read-outs stand apart in the source and are kept apart here.

How the values were obtained:
[1] = system: HI650 (Lung Adenocarcinoma); test: Cell viability analysis, lung cancer HI650; assay type: cell-based, human; conditions: Homo sapiens
[2] = system: A549 (Lung Adenocarcinoma); test: Cell viability analysis, lung cancer A549; assay type: cell-based, human; conditions: Homo sapiens
[3] = system: AGS (Gastric Adenocarcinoma); test: Cell viability analysis, gastric cancer AGS; assay type: cell-based, human; conditions: Homo sapiens
[4] = system: MKN-45 (Gastric Adenocarcinoma); test: Cell viability analysis, gastric cancer MKN-45; assay type: cell-based, human; conditions: Homo sapiens
[5] = system: HepG2 (Hepatocellular Carcinoma); test: Cell viability analysis, hepatic cancer HepG2; assay type: cell-based, human; conditions: Homo sapiens
[6] = system: LoVo (Colorectal Adenocarcinoma); test: Cell viability analysis, colon cancer LoVo; assay type: cell-based, human; conditions: Homo sapiens, LoVo
[7] = system: A375 (Amelanotic Melanoma); test: Cell viability analysis, skin cancer A375; assay type: cell-based, human; conditions: Homo sapiens
[8] = system: HeLa (Cervix Adenocarcinoma); test: Cell viability analysis, cervical cancer HeLa; assay type: cell-based, human; conditions: Homo sapiens, HeLa
[9] = system: PC3 (p53−) (Prostate Adenocarcinoma); test: Cell viability analysis, prostate cancer PC3; assay type: cell-based, human; conditions: Homo sapiens
[10] = system: TSGH-8301 (Urinary Bladder Carcinoma); test: Cell viability analysis, bladder cancer TSGH-8301; assay type: cell-based, human; conditions: Homo sapiens
[11] = system: MCF7 (Mammary Gland, Adenocarcinoma); test: Cell viability analysis, breast cancer MCF7; assay type: cell-based, human; conditions: Homo sapiens
[12] = system: HL-60 (Acute Promyelocytic Leukemia); test: Cell viability analysis, leukemia HL-60; assay type: cell-based, human; conditions: Homo sapiens
[13] = system: HCT116 (p53+) (Colorectal Carcinoma); test: cells; conditions: Homo sapiens, HCT-116, 72 h, read-out: cell viability (survival rate), HCT116
[14] = NCI-H1650, 72 h, drug 10 μM, 72 hours, WST-1, OD450 nm, read-out: cell viability (survival rate), H1650
[15] = A549, 72 h, drug 10 μM, 72 hours, WST-1, OD450 nm, read-out: cell viability (survival rate), A549
[16] = 72 h, drug 10 μM, 72 hours, WST-1, OD450 nm, read-out: cell viability (survival rate), AGS
[17] = MKN-45, 72 h, drug 10 μM, 72 hours, WST-1, OD450 nm, read-out: cell viability (survival rate), MKN-45
[18] = HepG2, 72 h, drug 10 μM, 72 hours, WST-1, OD450 nm, read-out: cell viability (survival rate), HepG2
[19] = 72 h, read-out: cell viability (survival rate), LoVo, drug 10 μM, 72 hours, WST-1, OD450 nm
[20] = A-375, 72 h, drug 10 μM, 72 hours, WST-1, OD450 nm, read-out: cell viability (survival rate), A375
[21] = 72 h, drug 10 μM, 72 hours, WST-1, OD450 nm, read-out: cell viability (survival rate), HeLa
[22] = 72 h, drug 10 μM, 72 hours, WST-1, OD450 nm, read-out: cell viability (survival rate), PC3
[23] = 72 h, drug 10 μM, 72 hours, WST-1, OD450 nm, read-out: cell viability (survival rate), TSGH
[24] = MCF7, 72 h, drug 10 μM, 72 hours, WST-1, OD450 nm, read-out: cell viability (survival rate), MCF7
[25] = HL-60, 72 h, drug 10 μM, 72 hours, WST-1, OD450 nm, read-out: cell viability (survival rate), HL-60
[26] = NCI-H1650, 72 h, read-out: cell viability (survival rate), H1650, drug 10 μM, 72 hours, WST-1, OD450 nm
[27] = A549, 72 h, read-out: cell viability (survival rate), A549, drug 10 μM, 72 hours, WST-1, OD450 nm
[28] = 72 h, read-out: cell viability (survival rate), AGS, drug 10 μM, 72 hours, WST-1, OD450 nm
[29] = MKN-45, 72 h, read-out: cell viability (survival rate), MKN-45, drug 10 μM, 72 hours, WST-1, OD450 nm
[30] = HepG2, 72 h, read-out: cell viability (survival rate), HepG2, drug 10 μM, 72 hours, WST-1, OD450 nm
[31] = A-375, 72 h, read-out: cell viability (survival rate), A375, drug 10 μM, 72 hours, WST-1, OD450 nm
[32] = 72 h, read-out: cell viability (survival rate), HeLa, drug 10 μM, 72 hours, WST-1, OD450 nm
[33] = 72 h, read-out: cell viability (survival rate), PC3, drug 10 μM, 72 hours, WST-1, OD450 nm
[34] = 72 h, read-out: cell viability (survival rate), TSGH, drug 10 μM, 72 hours, WST-1, OD450 nm
[35] = MCF7, 72 h, read-out: cell viability (survival rate), MCF7, drug 10 μM, 72 hours, WST-1, OD450 nm
[36] = HL-60, 72 h, read-out: cell viability (survival rate), HL-60, drug 10 μM, 72 hours, WST-1, OD450 nm
[37] = NCI-H1650, drug 10 μM, 72 hours, WST-1, OD450 nm, read-out: cell viability (survival rate), H1650
[38] = A549, drug 10 μM, 72 hours, WST-1, OD450 nm, read-out: cell viability (survival rate), A549
[39] = drug 10 μM, 72 hours, WST-1, OD450 nm, read-out: cell viability (survival rate), AGS
[40] = drug 10 μM, 72 hours, WST-1, OD450 nm, read-out: cell viability (survival rate), LoVo
[41] = A-375, drug 10 μM, 72 hours, WST-1, OD450 nm, read-out: cell viability (survival rate), A375
[42] = drug 10 μM, 72 hours, WST-1, OD450 nm, read-out: cell viability (survival rate), HeLa
[43] = drug 10 μM, 72 hours, WST-1, OD450 nm, read-out: cell viability (survival rate), PC3
[44] = drug 10 μM, 72 hours, WST-1, OD450 nm, read-out: cell viability (survival rate), TSGH
[45] = MCF7, drug 10 μM, 72 hours, WST-1, OD450 nm, read-out: cell viability (survival rate), MCF7
[46] = HL-60, drug 10 μM, 72 hours, WST-1, OD450 nm, read-out: cell viability (survival rate), HL-60

| Compound | viability at 10 µM [1, 14] [%] | viability at 10 µM [2, 15] [%] | viability at 10 µM [3, 16] [%] | viability at 10 µM [4, 17] [%] | viability at 10 µM [5, 18] [%] | viability at 10 µM [6, 19] [%] | viability at 10 µM [7, 20] [%] | viability at 10 µM [8, 21] [%] | viability at 10 µM [9, 22] [%] | viability at 10 µM [12, 25] [%] | viability at 10 µM [13] [%] | viability at 10 µM [1, 26] [%] | viability at 10 µM [2, 27] [%] | viability at 10 µM [3, 28] [%] | viability at 10 µM [5, 30] [%] | viability at 10 µM [7, 31] [%] | viability at 10 µM [8, 32] [%] | viability at 10 µM [9, 33] [%] | viability at 10 µM [10, 34] [%] | viability at 10 µM [12, 36] [%] | also measured |
| --- | --- | --- | --- | --- | --- | --- | --- | --- | --- | --- | --- | --- | --- | --- | --- | --- | --- | --- | --- | --- | --- |
| CC(=O)Nc1ncc([N+](=O)[O-])s1 [Nithiamide] | 67.1 | 39.3 | 102 | 76.7 | 94.8 | 89.8 | 96.7 | 83 | 74.5 | 102 | 86.9 |  |  |  |  |  |  |  |  |  | viability at 10 µM [10, 23]: 122%; viability at 10 µM [11, 24]: 65.5% |
| O[C@@H]1CO[C@H]2[C@@H]1OC[C@@H]2O [Isosorbide] |  |  |  |  |  | 81.8 |  |  |  |  | 55.1 | 73.3 | 60.7 | 69 | 90.1 | 53.5 | 72.8 | 94.3 | 77.5 | 125 | viability at 10 µM [4, 29]: 93.1%; viability at 10 µM [11, 35]: 78.6% |
| COC(=O)N/N=C/c1c[n+]([O-])c2ccccc2[n+]1[O-] [Carbadox] | 56.9 | 24.8 | 51.9 | 104 | 88.7 | 54.4 | 52.4 | 60 | 52.5 | 87 | 72.8 |  |  |  |  |  |  |  |  |  | viability at 10 µM [10, 23]: 67.9%; viability at 10 µM [11, 24]: 34.6% |
| CCCCCCCCCCCCCCCCO [1-Hexadecanol] | 84.3 | 84 | 89.4 | 85.5 | 96 | 98.8 | 113 | 91.3 | 91.9 | 92.2 | 69.8 |  |  |  |  |  |  |  |  |  |  |
| c1ccc2c(c1)sc1ccccc12 [Dibenzothiophene] |  |  |  |  |  |  |  |  |  |  | 52.7 |  |  |  |  |  |  |  |  |  | viability at 10 µM [1, 37]: 76.1%; viability at 10 µM [2, 38]: 62.3%; viability at 10 µM [3, 39]: 59.2%; viability at 10 µM ([4]; MKN-45, drug 10 μM, 72 hours, WST-1, OD450 nm, read-out: cell viability (survival rate), MKN-45): 92.1%; viability at 10 µM [6, 40]: 79.7%; viability at 10 µM [7, 41]: 70.6%; viability at 10 µM [8, 42]: 94.6%; viability at 10 µM [9, 43]: 80.2%; viability at 10 µM [10, 44]: 88.2%; viability at 10 µM [11, 45]: 71.4%; viability at 10 µM [12, 46]: 110% |
| OC[C@H]1O[C@H](O[C@]2(CCl)O[C@H](CCl)[C@@H](O)[C@@H]2O)[C@H](O)[C@@H](O)[C@H]1Cl [Sucralose] | 72 | 74.3 | 66.7 | 94.1 | 95.3 | 73.8 | 83.3 | 77.9 | 78.8 | 88.5 | 54.8 |  |  |  |  |  |  |  |  |  | viability at 10 µM [10, 23]: 94.3%; viability at 10 µM [11, 24]: 71.2% |
| O=c1ccc2ccccc2o1 [Coumarin] |  |  |  |  |  | 88.3 |  |  |  |  | 93.7 | 95.6 | 91.8 | 98.5 | 100 | 157 | 96.5 | 86.3 | 108 | 102 |  |
| Cc1cc(O)ccc1Cl [Chlorocresol] |  |  |  |  |  |  |  |  |  |  | 61.7 |  |  |  |  |  |  |  |  |  | viability at 10 µM ([1]; NCI-H1650, 72 h, read-out: cell viability (survival rate), H1650): 91.5%; viability at 10 µM ([2]; A549, 72 h, read-out: cell viability (survival rate), A549): 80.1%; viability at 10 µM ([3]; 72 h, read-out: cell viability (survival rate), AGS): 103%; viability at 10 µM ([5]; HepG2, 72 h, read-out: cell viability (survival rate), HepG2): 98.6%; viability at 10 µM ([6]; 72 h, read-out: cell viability (survival rate), LoVo): 62%; viability at 10 µM ([7]; A-375, 72 h, read-out: cell viability (survival rate), A375): 65.4%; viability at 10 µM ([8]; 72 h, read-out: cell viability (survival rate), HeLa): 96.3%; viability at 10 µM ([9]; 72 h, read-out: cell viability (survival rate), PC3): 130%; viability at 10 µM ([10]; 72 h, read-out: cell viability (survival rate), TSGH): 113%; viability at 10 µM ([11]; MCF7, 72 h, read-out: cell viability (survival rate), MCF7): 64.2%; viability at 10 µM ([12]; HL-60, 72 h, read-out: cell viability (survival rate), HL-60): 96.4% |
| COC(=O)C1=CO[C@@H](O)[C@@H]2C(CO)=CC[C@H]12 [Genipin] |  |  |  |  |  |  |  |  |  |  | 82.7 | 69.5 | 61.8 | 49.6 | 87.1 | 78 | 74.5 | 71.6 | 67.7 | 117 | viability at 10 µM [4, 29]: 54.1%; viability at 10 µM [11, 35]: 71.7% |
| O=c1cc[nH]c(=O)[nH]1 [Uracil] |  |  |  |  |  | 70.2 |  |  |  |  | 94.3 | 91.8 | 80.5 | 82.9 | 100 | 98.2 | 107 | 163 | 104 | 98.7 | viability at 10 µM [11, 35]: 103% |
| CNC[C@H](O)[C@@H](O)[C@H](O)[C@H](O)CO [Meglumine] |  |  |  |  |  |  |  |  |  |  | 92.7 |  |  |  |  |  |  |  |  |  | viability at 10 µM [1, 37]: 62%; viability at 10 µM [2, 38]: 108%; viability at 10 µM [3, 39]: 95%; viability at 10 µM ([5]; HepG2, drug 10 μM, 72 hours, WST-1, OD450 nm, read-out: cell viability (survival rate), HepG2): 90.8%; viability at 10 µM [6, 40]: 78.4%; viability at 10 µM [7, 41]: 78.2%; viability at 10 µM [8, 42]: 74.1%; viability at 10 µM [9, 43]: 76.8%; viability at 10 µM [10, 44]: 109%; viability at 10 µM [11, 45]: 97%; viability at 10 µM [12, 46]: 114% |
